Assay type in all cases: in vivo
In data set [1] the test system is mouse lung tumor line M (Madison) 109. The data set can be described thus: Taxoprexin and paclitaxel against M 109 lung carcinoma in mice, treatment from day 5 (tumors 300 mg). Particulars: tumors 300 mg at start. As to the method:
Syngeneic mice were injected with mouse lung tumor line M (Madison) 109 sub-cutaneously in the flank. […] Both drugs were dissolved in 10% cremophor EL/10% ethanol/80% saline. Tumor volume was estimated from tumor width and length. […] (FIG. 2)

For a further data set, the system named is human HCT colon tumor. Put plainly: Cure of human HCT colon tumor in mice. Conditions: HCT is a paclitaxel resistant tumor.
For data set [2], the system named is mouse lung tumor line M (Madison) 109. The data set can be described thus: Taxoprexin and paclitaxel against M 109 lung carcinoma in mice, treatment from day 4 (tumor about 30 mg). Conditions: days 4 through 8, tumor about 30 mg at start. How it is done: Syngeneic mice were injected with mouse lung tumor line M (Madison) 109 sub-cutaneously in the flank. […] Both drugs were dissolved in 10% cremophor EL/10% ethanol/80% saline. Tumor volume was estimated from tumor width and length. […] (FIG. 1)

Data set [3] has as its system human NCI-H522 lung tumor. Put plainly: Response of human NCI-H522 lung tumor in nude mice. Conditions: day 15 to 19 after implantation. How it is done: The tumors were implanted sub-cutaneously. Tumor mass was determined by calculation from tumor length and width. The drugs were dissolved in 12.5% cremophor EL/12.5% ethanol/75% saline and delivered i.v. into the tail vein, once a day for 5 days, from day 15 to 19 after tumor implantation. […] (FIG. 3)

A short description of data set [4]: Dose comparisons (MTD) of taxoprexin and paclitaxel in various species. Conditions: mice, rats and dogs.
Text: Calculation of MTD in animals may be based on a number of physiological parameters, such as death, particular toxicities, drug induced weight loss. Using death as an endpoint, the MTD may be the dose given test animals in which each member of the test group survived. Using toxicity as an endpoint, the MTD may be the dose at which moderate but not severe toxicity is observed. Using weight loss as an endpoint, the MTD may be the dose above which a certain percent change in body weight is induced.
Data set [5] is described as follows: Plasma and tumor concentrations of paclitaxel in mice bearing M 109 or M 5076 tumors. Conditions: for time for which levels of paclitaxel in tumors remain stable: tumors treated with the named drug. As to the method: The drug was dissolved in 10% cremophor EL/10% ethanol/80% saline. Mice were sacrificed and tumors immediately excised as a function of time after injecting the drug. Tumor tissue was homogenized and paclitaxel extracted. […] Blood was collected at the same time intervals and the amount of paclitaxel determined. […] Each data point is the mean of three measurements (n=3); the error bar is one standard deviation.

Setting [6] is: paclitaxel 20 mg/kg/day x 5 days i.v. bolus from day 5.

The structures appear in SMILES notation. A value given as a limit tells only on which side of the number the result lay.

Consider `CC/C=C\C/C=C\C/C=C\C/C=C\C/C=C\C/C=C\CCC(=O)O[C@@H](C(=O)O[C@H]1C[C@@]2(O)[C@@H](OC(=O)c3ccccc3)[C@@H]3[C@]4(OC(C)=O)CO[C@@H]4C[C@H](O)[C@@]3(C)C(=O)[C@H](OC(C)=O)C(=C1C)C2(C)C)[C@@H](NC(=O)c1ccccc1)c1ccccc1` [taxoprexin], for which the “mice with all measurable tumors completely eliminated” value is “four out of seven” in data set [1] (taxoprexin 80 mg/kg/day x 5 days i.v. bolus from day 5) and “eight out of eight” in data set [2] (taxoprexin 120 mg/kg/day x 5 days i.v. bolus). Besides, the “mice with all measurable tumors completely eliminated (C/T)” value in data set [1] (taxoprexin 120 mg/kg/day x 5 days i.v. bolus from day 5) is listed as 7/8. The “mice cured of tumor” value with human HCT colon tumor is on record as 3/8. The “mice with all measurable tumors eliminated” value in data set [3] (50 mg/kg/day x 5 days i.v.) is on record as 10/10. For the same compound, in data set [4], the “toxicity compared with paclitaxel” value is reported as “less toxic”. In addition, the “plasma concentration of paclitaxel derived from taxoprexin” value in data set [5] (after 24 hours, i.v. bolus 50 mg/kg taxoprexin) is 70 nM. In addition, the “tumor concentration of paclitaxel derived from taxoprexin” value in data set [5] (after 24 hours, i.v. bolus 50 mg/kg taxoprexin, M109 or M5076 tumors) is given as “about 3 μM”. Moreover, the “time for which levels of paclitaxel in tumors remain stable” value in data set [5] is 24 h.

On to `CC(=O)O[C@H]1C(=O)[C@@]2(C)[C@H]([C@H](OC(=O)c3ccccc3)[C@]3(O)C[C@H](OC(=O)[C@H](O)[C@@H](NC(=O)c4ccccc4)c4ccccc4)C(C)=C1C3(C)C)[C@]1(OC(C)=O)CO[C@@H]1C[C@@H]2O` [paclitaxel, reference compound], for which, in data set [1] (setting [6]), the LCK amounted to 1.0 and the “retarded tumor growth (duration)” value is reported as “about four days”. The “mice cured of tumor” value in the data set on human HCT colon tumor is 0/8. Besides, the “retarded tumor growth (duration)” value in data set [2] (paclitaxel 20 mg/kg/day x 5 days i.v. bolus) is recorded as “about four days”. Also, the “mice with all measurable tumors eliminated” value in data set [3] (20 mg/kg/day x 5 days i.v.) was 10/10. In addition, the t½ in tumor in data set [5] (paclitaxel in the same tumor system) was less than 8 h. The “time for which levels of paclitaxel in tumors remain stable” value in data set [5] was “less than 8 hours”.

These data come from patent publication US7235583B1, “Fatty acid-anticancer conjugates and uses thereof” (Luitpold Pharmaceuticals, Inc.,, priority 1999, dated 2007).
